# Key:
# [1] = target: T1, fusion protein of TG1019 protein and Giα1 (351Cys→Ile) (Homo sapiens, UniProt P63096+Q8TDS5, C351I/D111G/K206E/T295A); experiment: [35S]GTPγS binding to membrane fraction containing TG1019-Giα1 (351Cys→Ile) fusion protein (ligand identification); type: biochemical; details: membrane fraction with TG1019-Giα1 (351Cys→Ile) fusion protein
# T1 construct: made in house; host or cells: Sf9 insect cells (baculovirus, pVL1392), membrane fraction
# Source text: As stated in Example 1, it is concluded that TG1019 protein is a G-protein coupled receptor. Therefore, using a membrane fraction containing fused protein of TG1019 and G-protein, a ligand is identified as follows, according to a method for detecting a ligand-dependent binding with GTPγS (guanosine 5′-O-(3-thiotriphosphate)) [Wenzel-Seifert, et al., Mol. Pharmacom., Vol. 58, pp. 954-966, 2000; Bahia, et al., Biochemistry, Vol. 37, pp. 11555-11562, 1998].
# Sf9 cells were inoculated onto a 10 cm Petri dish coated with collagen to about 70% confluence, and added thereto were Virus solution III (100 μl) obtained above and 12 ml of a culture medium, and the mixture was cultured at 27° C. for 4 days. The obtained cells were washed with a cooled PBS (Phosphate buffered saline, pH 7.4), and suspended in 3.6 ml of a cooled solution buffer [20 mM Tris-HCl, pH 7.5, 1 mM EDTA, 0.2 mM phenylmethylsulfonyl fluoride, 10 μg/ml pepstatin, 10 μg/ml leupeptin, and 2 μg/ml aprotinin], and the cells were homogenized by means of a Teflon homogenizer. This cell homogenate was centrifuged (600×g, 10 minutes), and the resultant supernatant was further centrifuged (50,000×g, 20 minutes). The obtained sediments were suspended in 450 μl of a cooled reaction buffer [20 mM Tris-HCl, pH 7.5, 50 mM sodium chloride, 10 mM magnesium chloride] by means of a Teflon homogenizer, to prepare a membrane fraction containing a fusion protein.
# The membrane fraction (450 μl) obtained above (2) was suspended in a reaction buffer (7.54 ml), and added thereto was GDP (10 mM, 10 μl). To 160 μl of this solution was added 20 μl of a test compound. After incubating the mixture at 30° C. for 10 minutes, 20 μl of [^35S] GTPγS (5 nM, 5 nCi/μl: available from Amersham Pharmacia Biotech) was added to start reaction. After incubating the mixture at 30° C. for one hour, the reaction was terminated by filtration through a glass filter (UniFilter-96GF/B, available from Packard). The filter was washed with 200 μl of a cooled reaction buffer for 3 times, and an amount of the [^35S] GTPγS (a binding amount to the membrane fraction) on the filter was measured by liquid scintillation counting. From the thus measured [^35S] GTPγS binding amount was subtracted a nonspecific binding amount (a binding amount measured in the presence of 10 μM GTPγS), to obtain a specific binding amount of [^35S ] GTPγS.
# TG1019 protein = experiment: Forskolin-stimulated cAMP production in CHO cells transiently expressing TG1019; type: cell-based, human
# Source text: A TG1019 protein expression vector was transiently introduced to CHO cells to have a recombinant TG1019 protein expressed, and using these cells, a function of TG1019 protein as an eicosanoid receptor was confirmed.
# At first, a DNA encoding an entire region of TG1019 protein obtained in Example 1 (1) mentioned above was subcloned in NotI recognition site of a vector plasmid pcDNA3.1 (an expression vector, available from Invitrogen), to obtain TG1019 protein expression vector plasmid pcDNA3.1-TG1019.
# CHO cells (1×10^6 cells) were cultured in DMEM/F-12 culture medium supplemented with 10% fetal bovine serum at 37° C. for 20 hours. Using these cells, transfection was carried out by adding plasmid DNA (pcDNA3.1-TG1019, or as a control, vector pcDNA3.1) (5 μg) and transfection reagent (LipofectAMINE, available from Invitrogen), and the mixture was cultured for 24 hours. In case of using pretreatment with pertussis toxin, pertussis toxin (100 ng) was added after 20 hours of culture and the mixture was successively cultured for 4 hours.
# The cells after culture were collected, washed, and suspended in a KRH buffer (Krebs-Ringer Hepes buffer, pH 7.4) containing rolipram (25 mM). The suspension was incubated at 37° C. for 30 minutes and inoculated in a 96 well plate (5-7.5×10^4 cells/90 μl/well).
# Subsequently, KRH buffer (90 μl/well) containing forskolin (1 μM) and 5-oxo-ETE (the final concentration 0M or 10^−11 to 10^−5 M) was added thereto, and after the mixture was incubated at room temperature for 10 minutes, the cells were lysed to measure a cAMP production amount.
# The cAMP production amount was measured using cAMP enzyme immunoassay system available from Amersham Biosciences.
# [2] = system: PC3 human prostate cancer cells; experiment: Apoptosis analysis (annexin V / PI flow cytometry) in PC3 cells; type: cell-based; details: 20 μl of 100 μM 5-oxo-ETE added together with DHA, 2 hours
# Procedure: PC3 human prostate cancer cells, which had been cultured in RPMI1640 culture medium supplemented with 10% fetal bovine serum were dissociated by trypsin-EDTA solution (GibcoBRL), and suspended in RPMI1640 culture medium supplemented with 0.5% fetal bovine serum. The cells were plated onto a 6 cm Petri dish to 2×10^5 cells/dish, and cultured at 37° C. for 18 hours in a CO2 incubator. The supernatant was removed and 1980 μl of the same medium was added, and 20 μl of 1 mM DHA was further added thereto, and the mixture was cultured at 37° C. for 2 hours in a CO2 incubator.
# In addition, as a test in the presence of 5-oxo-ETE, 1960 μl of RPMI1640 culture medium supplemented with 0.5% fetal bovine serum was added, and 20 μl of a 100 μM 5-oxo-ETE solution and 20 μl of a 1 mM DHA solution were further added thereto, and the cells were cultured in a similar manner as described above.
# The adhered cells were removed by a cell scraper, transferred to a 1.5 ml tube, and centrifuged at 800×g for 5 minutes at 4° C., to collect suspended and adhered cells. […] The cells were suspended in 100 μl of a FITC-Annexin solution, and after 15 minutes of reaction under light-shielded condition at room temperature, 300 μl of Binding buffer was added thereto, and the FITC-Annexin bound to the cells and propidium iodide (PI) uptake into the cells were measured, by means of flow cytometer [Becton Dickinson].
# T1 sequence (Q8TDS5+P63096 fused Q8TDS5:D111G/Q8TDS5:K206E/Q8TDS5:T295A/P63096:C351I): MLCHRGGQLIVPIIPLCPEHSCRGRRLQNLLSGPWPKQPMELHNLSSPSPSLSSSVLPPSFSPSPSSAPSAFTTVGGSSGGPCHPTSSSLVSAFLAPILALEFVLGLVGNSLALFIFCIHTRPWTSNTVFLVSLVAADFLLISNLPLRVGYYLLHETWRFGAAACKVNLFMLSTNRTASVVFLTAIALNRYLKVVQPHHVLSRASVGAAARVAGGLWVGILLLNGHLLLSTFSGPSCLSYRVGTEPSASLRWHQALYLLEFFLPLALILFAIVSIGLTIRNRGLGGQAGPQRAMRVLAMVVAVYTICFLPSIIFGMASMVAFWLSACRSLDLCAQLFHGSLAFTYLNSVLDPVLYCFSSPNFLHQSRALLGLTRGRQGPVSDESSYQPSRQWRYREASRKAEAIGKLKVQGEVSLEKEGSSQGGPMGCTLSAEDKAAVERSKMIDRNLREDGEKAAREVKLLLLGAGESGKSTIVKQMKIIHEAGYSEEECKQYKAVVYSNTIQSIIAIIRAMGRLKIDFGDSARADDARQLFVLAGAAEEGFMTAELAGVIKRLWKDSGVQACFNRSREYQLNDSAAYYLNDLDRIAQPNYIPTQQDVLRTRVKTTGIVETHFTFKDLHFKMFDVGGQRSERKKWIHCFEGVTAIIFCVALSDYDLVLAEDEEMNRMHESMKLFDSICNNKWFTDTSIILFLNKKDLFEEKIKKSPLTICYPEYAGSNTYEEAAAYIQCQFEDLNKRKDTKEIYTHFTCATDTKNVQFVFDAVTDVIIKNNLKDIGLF
compound,measurement,setting,value
"CCCCC/C=C\C/C=C\C/C=C\C=C\C(=O)CCCC(=O)O [5-oxo-ETE, 5-oxo-6E,8Z,11Z,14Z-eicosatetraenoic acid]",specific binding amount of [35S]GTPγS,[1],increased in a concentration-dependent manner
same,cAMP production amount upon forskolin stimulation,"TG1019 protein; CHO cells with pcDNA3.1-TG1019 introduced, forskolin 1 μM, concentration-dependent",inhibited
same,cAMP production,TG1019 protein; TG1019-expressing CHO cells pretreated with pertussis toxin,not inhibited
same,cAMP production amount upon forskolin stimulation,TG1019 protein; control CHO cells with only vector introduced,not changed
same,effect on DHA induction of apoptosis,[2],the induction of apoptosis was inhibited
